Laboratory results: the supplement of paper PMC10307832

compound: CC(C)=CC[C@@H](O)C1=CC(=O)c2c(O)ccc(O)c2C1=O [Shikonin] + CC(=O)c1c(C)c2cnc(Nc3ccc(N4CCNCC4)cn3)nc2n(C2CCCC2)c1=O [Palbociclib] (partner 0.5 µM); test: relative viability (nuclei count vs DMSO), 5 days (fraction); higher = more cells survive; details: first compound 0.01 µM
Summary of the method: (§1)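 Each reported value is a median over duplicate plates. It expresses relative viability: treated-well nuclei count divided by vehicle-well nuclei count. Lung cancer cell lines in 1536-well plates were dosed by pin tool a day after seeding, alone with one drug or with a fixed anchor-drug dose plus five library-drug doses (not always all listed) in √10 steps, and nuclei were counted after 5 days.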

Cell Line | relative viability
NCI-H2023 | 0.437
A-427 | 0.503
NCI-H460 | 0.166
NCI-H838 | 0.231
NCI-H1734 | 0.319
NCI-H2405 | 0.527
NCI-H1395 | 0.524
201T | 0.346
NCI-H1915 | 0.535
HCC-827 | 0.48
LXF-289 | 0.594
NCI-H2347 | 0.432
NCI-H661 | 0.405
CAL-12T | 0.414
NCI-H1651 | 0.553
EPLC-272H | 0.373
NCI-H23 | 0.597
NCI-H1792 | 0.717

Cell Line | relative viability
NCI-H1355 | 0.421
NCI-H322M | 0.479
NCI-H1437 | 0.328
NCI-H1755 | 0.463
NCI-H2085 | 0.468
HCC-15 | 0.781
NCI-H1793 | 0.283
RERF-LC-KJ | 1.09
EKVX | 0.404
LC-2-ad | 0.533
NCI-H1944 | 0.311
NCI-H1975 | 0.549
SW 1573 | 0.513
ABC-1 | 0.904
NCI-H358 | 0.139
NCI-H727 | 0.713
SK-LU-1 | 0.379

same assay, conditions: first compound 0.1 µM

Cell Line | relative viability
NCI-H2023 | 0.363
A-427 | 0.545
NCI-H460 | 0.227
NCI-H838 | 0.246
NCI-H1734 | 0.38
NCI-H2405 | 0.569
NCI-H1395 | 0.664
201T | 0.413
NCI-H1915 | 0.521
HCC-827 | 0.517
LXF-289 | 0.707
NCI-H2347 | 0.424
NCI-H661 | 0.395
CAL-12T | 0.451
NCI-H1651 | 0.522
EPLC-272H | 0.321
NCI-H23 | 0.543
NCI-H1792 | 0.493

Cell Line | relative viability
NCI-H1355 | 0.419
NCI-H322M | 0.446
NCI-H1437 | 0.309
NCI-H1755 | 0.443
NCI-H2085 | 0.509
HCC-15 | 0.676
NCI-H1793 | 0.321
RERF-LC-KJ | 1.13
EKVX | 0.389
LC-2-ad | 0.483
NCI-H1944 | 0.403
NCI-H1975 | 0.629
SW 1573 | 0.344
ABC-1 | 0.592
NCI-H358 | 0.132
NCI-H727 | 0.603
SK-LU-1 | 0.404

same assay, conditions: first compound 0.3162 µM

Cell Line | relative viability
NCI-H2023 | 0.411
A-427 | 0.528
NCI-H460 | 0.2
NCI-H838 | 0.197
NCI-H1734 | 0.323
NCI-H2405 | 0.558
NCI-H1395 | 0.596
201T | 0.331
NCI-H1915 | 0.525
HCC-827 | 0.518
LXF-289 | 0.618
NCI-H2347 | 0.414
NCI-H661 | 0.426
CAL-12T | 0.403
NCI-H1651 | 0.544
EPLC-272H | 0.336
NCI-H23 | 0.623
NCI-H1792 | 0.729

Cell Line | relative viability
NCI-H1355 | 0.383
NCI-H322M | 0.477
NCI-H1437 | 0.268
NCI-H1755 | 0.432
NCI-H2085 | 0.447
HCC-15 | 0.817
NCI-H1793 | 0.306
RERF-LC-KJ | 1.1
EKVX | 0.413
LC-2-ad | 0.441
NCI-H1944 | 0.321
NCI-H1975 | 0.541
SW 1573 | 0.323
ABC-1 | 0.892
NCI-H358 | 0.131
NCI-H727 | 0.678
SK-LU-1 | 0.437

same assay, conditions: first compound 1 µM

Cell Line | relative viability
NCI-H2023 | 0.401
A-427 | 0.553
NCI-H460 | 0.222
NCI-H838 | 0.243
NCI-H1734 | 0.308
NCI-H2405 | 0.509
NCI-H1395 | 0.628
201T | 0.387
NCI-H1915 | 0.645
HCC-827 | 0.493
LXF-289 | 0.622
NCI-H2347 | 0.397
NCI-H661 | 0.4
CAL-12T | 0.438
NCI-H1651 | 0.523
EPLC-272H | 0.282
NCI-H23 | 0.573
NCI-H1792 | 0.7

Cell Line | relative viability
NCI-H1355 | 0.398
NCI-H322M | 0.489
NCI-H1437 | 0.303
NCI-H1755 | 0.482
NCI-H2085 | 0.479
HCC-15 | 0.724
NCI-H1793 | 0.345
RERF-LC-KJ | 1.08
EKVX | 0.366
LC-2-ad | 0.511
NCI-H1944 | 0.349
NCI-H1975 | 0.641
SW 1573 | 0.093
ABC-1 | 0.586
NCI-H358 | 0.131
NCI-H727 | 0.67
SK-LU-1 | 0.373

compound: CC(C)=CC[C@@H](O)C1=CC(=O)c2c(O)ccc(O)c2C1=O [Shikonin] + COc1cccc2cc(-c3nc([C@H]4CC[C@H](C(=O)O)CC4)n4ncnc(N)c34)[nH]c12 [OSI-027] (partner 0.5 µM); test: as above; details: first compound 0.01 µM
Summary of the method: as §1

Cell Line | relative viability
NCI-H2023 | 0.394
A-427 | 0.503
NCI-H460 | 0.834
NCI-H838 | 0.387
NCI-H1734 | 0.661
NCI-H2405 | 0.644
NCI-H1395 | 0.582
201T | 0.795
NCI-H1915 | 0.615
HCC-827 | 0.821
LXF-289 | 0.817
NCI-H2347 | 0.444
NCI-H661 | 0.685
CAL-12T | 0.658
NCI-H1651 | 0.744
EPLC-272H | 0.271
NCI-H23 | 0.623
NCI-H1792 | 0.7

Cell Line | relative viability
NCI-H1355 | 0.457
NCI-H322M | 0.548
NCI-H1437 | 0.936
NCI-H1755 | 0.765
NCI-H2085 | 0.832
HCC-15 | 0.719
NCI-H1793 | 0.223
RERF-LC-KJ | 0.513
EKVX | 0.617
LC-2-ad | 0.815
NCI-H1944 | 0.397
NCI-H1975 | 0.728
SW 1573 | 0.564
ABC-1 | 0.61
NCI-H358 | 0.681
NCI-H727 | 0.683
SK-LU-1 | 0.341

same assay, conditions: first compound 0.1 µM

Cell Line | relative viability
NCI-H2023 | 0.367
A-427 | 0.594
NCI-H460 | 0.755
NCI-H838 | 0.345
NCI-H1734 | 0.713
NCI-H2405 | 0.661
NCI-H1395 | 0.681
201T | 0.994
NCI-H1915 | 0.737
HCC-827 | 0.86
LXF-289 | 0.84
NCI-H2347 | 0.425
NCI-H661 | 0.774
CAL-12T | 0.936
NCI-H1651 | 0.469
EPLC-272H | 0.274
NCI-H23 | 0.661
NCI-H1792 | 0.63

Cell Line | relative viability
NCI-H1355 | 0.405
NCI-H322M | 0.562
NCI-H1437 | 0.833
NCI-H1755 | 0.736
NCI-H2085 | 0.973
HCC-15 | 0.705
NCI-H1793 | 0.271
RERF-LC-KJ | 0.534
EKVX | 0.668
LC-2-ad | 0.913
NCI-H1944 | 0.462
NCI-H1975 | 0.763
SW 1573 | 0.518
ABC-1 | 0.533
NCI-H358 | 0.699
NCI-H727 | 0.668
SK-LU-1 | 0.371

same assay, conditions: first compound 0.3162 µM

Cell Line | relative viability
NCI-H2023 | 0.443
A-427 | 0.514
NCI-H460 | 1.11
NCI-H838 | 0.405
NCI-H1734 | 0.624
NCI-H2405 | 0.67
NCI-H1395 | 0.661
201T | 0.715
NCI-H1915 | 0.634
HCC-827 | 0.9
LXF-289 | 0.825
NCI-H2347 | 0.391
NCI-H661 | 0.782
CAL-12T | 0.546
NCI-H1651 | 0.708
EPLC-272H | 0.279
NCI-H23 | 0.62
NCI-H1792 | 0.853

Cell Line | relative viability
NCI-H1355 | 0.37
NCI-H322M | 0.53
NCI-H1437 | 0.849
NCI-H1755 | 0.827
NCI-H2085 | 0.73
HCC-15 | 0.692
NCI-H1793 | 0.291
RERF-LC-KJ | 0.632
EKVX | 0.917
LC-2-ad | 0.816
NCI-H1944 | 0.423
NCI-H1975 | 0.7
SW 1573 | 0.443
ABC-1 | 0.391
NCI-H358 | 0.712
NCI-H727 | 0.57
SK-LU-1 | 0.343

same assay, conditions: first compound 1 µM

Cell Line | relative viability
NCI-H2023 | 0.408
A-427 | 0.509
NCI-H460 | 0.879
NCI-H838 | 0.459
NCI-H1734 | 0.53
NCI-H2405 | 0.658
NCI-H1395 | 0.732
201T | 0.976
NCI-H1915 | 0.595
HCC-827 | 0.761
LXF-289 | 0.892
NCI-H2347 | 0.398
NCI-H661 | 0.842
CAL-12T | 0.488
NCI-H1651 | 0.686
EPLC-272H | 0.259
NCI-H23 | 0.521
NCI-H1792 | 0.805

Cell Line | relative viability
NCI-H1355 | 0.483
NCI-H322M | 0.509
NCI-H1437 | 0.952
NCI-H1755 | 0.687
NCI-H2085 | 0.773
HCC-15 | 0.744
NCI-H1793 | 0.301
RERF-LC-KJ | 0.644
EKVX | 0.734
LC-2-ad | 0.876
NCI-H1944 | 0.459
NCI-H1975 | 0.68
SW 1573 | 0.258
ABC-1 | 0.265
NCI-H358 | 0.662
NCI-H727 | 0.525
SK-LU-1 | 0.352

compound: CC(C)=CC[C@@H](O)C1=CC(=O)c2c(O)ccc(O)c2C1=O [Shikonin] + N=C(N)NC(=N)NCCc1ccccc1 [Phenformin] (partner 250 µM); test: as above; details: first compound 0.01 µM
Summary of the method: as §1

Cell Line | relative viability
NCI-H2023 | 0.352
A-427 | 0.327
NCI-H460 | 0.515
NCI-H838 | 0.547
NCI-H1734 | 0.414
NCI-H2405 | 0.391
NCI-H1395 | 0.42
201T | 0.464
NCI-H1915 | 0.383
HCC-827 | 0.438
LXF-289 | 0.533
NCI-H2347 | 0.488
NCI-H661 | 0.251
CAL-12T | 0.612
NCI-H1651 | 0.381
